Columns and labels:
[1] = test system: Human coronary artery endothelial (HCAE) cells; assay: Endothelial cell invasion assay through Matrigel toward human VEGF; type: cell-based; settings: cells not pretreated, VEGF 10 ng/ml, normoxic or hypoxic
Method: Invasion of endothelial cells through a Matrigel matrix is one of many assays used to determine the angiogenic potential of test substances and is thought to be more predictive of angiogenesis in vivo than a simple chemotactic assay through open membrane pores since the cells must degrade and invade the matrix to move into and through the pores in the membrane. […] Human coronary artery endothelial (HCAE) cells (Lonza Walkersville, Inc., Walkersville, Md.) were cultured in the absence (control) or presence of TP508 [50 μg/ml] (TP pret) for 24 hours. Endothelial cell invasion assays were performed using BD BioCoat™ Angiogenesis System (BD Bioscience, Bedford, Mass.) which utilizes FluoroBlok inserts coated with BD Matrigel Matrix (BD Bioscience, Bedford, Mass.). Control or TP508 pretreated cells were added into the top of the inserts. […] After 22 hours of incubation, cells were labeled post-invasion with Calcein AM and measured by detecting the fluorescence of the cells that migrated to the underside of insert membrane.

eNOS [2] = assay: Human VEGF-induced eNOS activation (phosphorylation at S1177) in HCAE cells, Western blot; type: cell-based
Method: Human VEGF-induced eNOS activation was determined by Western blotting using an antibody recognizing the activated form of eNOS (phosphorylated at […]) (Cell Signaling, Danvers, Mass.). The membrane was re-probed with anti-GAPDH (glyceraldehyde-3-phosphate dehydrogenase) antibody to show equal protein loading. A bar graph representing densitometric analysis of the activated eNOS Western blot after different treatments is shown in FIG. 8.

[3] = test system: Human coronary artery endothelial (HCAE) cells; assay: Transmembrane cell migration assay toward human VEGF (BD FluoroBlok inserts); type: cell-based; settings: VEGF 10 ng/ml, hypoxic, 22 h
Method: The ability of a test substance to attract endothelial cells and stimulate their migration through pores in the membrane is one of several tests to determine the angiogenic potential of test substances. […] Prior to migration assay, cells were cultured with or without TP508 to determine the effect of TP508 on endothelial migration. Human coronary artery endothelial (HCAE) cells (Lonza Walkersville, Inc., Walkersville, Md.) were cultured in the absence (control) or presence of TP508 [50 μg/ml] (“TP pret” in FIG. 9A and FIG. 9B) for 24 hours. Transmembrane cell migration assays were performed using BD FluoroBlok inserts (BD Bioscience, Bedford, Mass.) as described by the vendor. Control or TP508 pretreated cells were added into the top of the inserts. […] (V) or medium alone (C) was added to the lower chamber of the insert plate as a chemoattractant. Endothelial migration was performed in normoxic or 1% hypoxic conditions. After a 22-hour incubation, cells were labeled post-migration with Calcein AM and measured by detecting the fluorescence of the cells that migrated to the underside of the insert membrane.

[4] = test system: HLME (Human Lung Microvascular Endothelial Cells); assay: Survival of serum-deprived HLME cells; type: cell-based
VEGF mRNA = assay: Real-time PCR of VEGF mRNA in HCMVE cells; type: cell-based, human; settings: VEGF 10 ng/ml, 24 h
Description: Real-time PCR analyses show changes in steady-state levels of VEGF mRNA after treatment. Data from one experiment performed in triplicate are shown in FIG. 11 as mean±SD. *p<0.01 compared to control (C) cells in normoxia. ^#p<0.01 compared to control (C) cells in hypoxia.

AC-23 = assay: Binding of biotin-conjugated thrombin to complementary peptide AC-23
Description: Addition of TP508 inhibited specific binding of biotin-labeled thrombin to AC-23. Up to 60% of the binding of thrombin to AC-23 can be inhibited by the addition of TP508. Therefore, both thrombin and TP508 bind to the complementary peptide, AC-23. […] Antibodies to AC-23 and other complementary peptides of thrombin can therefore be used to characterize the thrombin binding site that is activated by TP508, and can be used in the therapeutic and other methods described herein.

23C53 = assay: Binding of biotin-conjugated thrombin to complementary peptide 23C53
eNOS [5] = assay: Western blot of eNOS expression and phosphorylation (S1177) in HCAE cells; type: cell-based, human; settings: 24 h
Method: (§1) Human coronary artery endothelial cells (HCAE cells, Cambrex Bio Science Walkersville, Walkersville, Md.) were cultured in 5% CO2 at 37° C. in endothelial cell growth medium (EGM) supplemented with 2% fetal bovine serum and Single Quot supplements (Clonetics, San Diego, Calif.; containing epidermal growth factor, hydrocortisone, vascular endothelial growth factor, fibroblast growth factor, insulin growth factor, ascorbic acid, heparin, gentamycin, and amphotericin B). Cells were used between passages 4 and 6 for these studies. HCAE cells were plated at a density of 50,000 cells per well in 12-well plates and were grown for 3 days to reach confluency. Two-day post-confluent cells were treated with TNFα or TP508. Cells were then incubated in normoxic or 1% hypoxic conditions for the indicated times. In some experiments, cells were pretreated with TP508 for 1 h before TNFα stimulation. For RNA extraction, HCAE cells were cultured in 6-well plates.
The cell lysates were subjected to SDS-PAGE in a 10% polyacrylamide gel and transferred to a nitrocellulose membrane (0.2-μm, Invitrogen). After blocking with 5% milk, the membrane was incubated overnight at 4° C. with primary antibodies against phospho-eNOS (Ser 1177) and eNOS (Cell Signaling Technology, Beverly, Mass.), human type-1 arginase (clone 9C5) (Cell Sciences, Canton, Mass.), or GAPDH (Santa Cruz Biotechnology, Santa Cruz, Calif.). […]

ARG1 = ARG1 expression in HAE cells treated with TNFα; type: cell-based, human
Description: Under normoxic conditions, TP508 increased phosphorylated eNOS (p-eNOS) and eNOS in cells with and without TNFα/hypoxic treatment.

eNOS mRNA [6] = assay: RT-PCR of eNOS mRNA in HCAE cells; type: cell-based, human; settings: 6 h, 25 or 30 cycles
Method: as §1
Total RNA was isolated using an Ambion isolation kit as described by the manufacturer.
RT-PCR for eNOS was performed by Ready-to-Go RT-PCR Beads (Amersham Biosciences) using a two-step protocol. First, cDNA synthesis was achieved by incubating 1 μg total RNA with 1 μg random hexamers (pdN6) as primers and M.-MuLV reverse transcriptase at 42° C. for 60 min. […]

arginase 1 (ARG1) = assay: Western blot of arginase 1 expression in HCAE cells with or without TNFα; type: cell-based, human; settings: TNFα 24 h, normoxic
Method: Human coronary artery endothelial cells (HCAE cells, Cambrex Bio Science Walkersville, Walkersville, Md.) were cultured in 5% CO2 at 37° C. in endothelial cell growth medium (EGM) supplemented with 2% fetal bovine serum and Single Quot supplements (Clonetics, San Diego, Calif.; containing epidermal growth factor, hydrocortisone, vascular endothelial growth factor, fibroblast growth factor, insulin growth factor, ascorbic acid, heparin, gentamycin, and amphotericin B). Cells were used between passages 4 and 6 for these studies. HCAE cells were plated at a density of 50,000 cells per well in 12-well plates and were grown for 3 days to reach confluency. […] Cells were then incubated in normoxic or 1% hypoxic conditions for the indicated times.
The cell lysates were subjected to SDS-PAGE in a 10% polyacrylamide gel and transferred to a nitrocellulose membrane (0.2-μm, Invitrogen). After blocking with 5% milk, the membrane was incubated overnight at 4° C. with primary antibodies against phospho-eNOS (Ser 1177) and eNOS (Cell Signaling Technology, Beverly, Mass.), human type-1 arginase (clone 9C5) (Cell Sciences, Canton, Mass.), or GAPDH (Santa Cruz Biotechnology, Santa Cruz, Calif.). HRP-conjugated anti-mouse or anti-rabbit antibodies (Cell Signaling Technology) were used as secondary antibodies (HRP, horseradish peroxidase). […]

eNOS mRNA [7] = assay: SYBR Green real-time PCR of eNOS mRNA in HCAE cells; type: cell-based, human; settings: 24 h
Method: as §1
Real time quantitative PCR was used to determine relative expression of eNOS mRNA in endothelial cells treated with TP508 or TNF. […] Quantitative PCR amplifications were done using 2 μl of cDNA in a total volume of 25 μl using SYBR green probes in the SYBR Green PCR Master Mix (ABI). […] The reverse-transcribed cDNA sample cycle threshold values were determined from triplicate samples and normalized to the 18S “housekeeping” gene.

Chain of AC-23 (as listed by the source): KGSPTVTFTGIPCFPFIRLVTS
Chain of 23C53 (as listed by the source): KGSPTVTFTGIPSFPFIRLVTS

VEGF
Invasion of control endothelial cells through Matrigel toward human VEGF [1]: not stimulated
Decrease of VEGF-stimulated eNOS phosphorylation in hypoxic compared to normoxic cells (eNOS [2]; hypoxic (1% O2, 24 h) HCAE cells, 1 min VEGF): ~4 fold
VEGF-induced phosphorylation of eNOS on serine 1177, maximum (eNOS [2]; normoxic HCAE cells, VEGF 50 ng/ml, 1 minute): 2 fold
Endothelial cell migration relative to media control cells [3]: ~150%
Cell survival [4]: increased survival at lower levels
VEGF mRNA in hypoxic cells (VEGF mRNA; 1% hypoxic): no effect, or decreased
Decrease of VEGF mRNA expression compared to control cells (VEGF mRNA; normoxic): 2 fold

thrombin
Specific binding of thrombin to AC23 (AC-23): bind specifically
Specific binding of thrombin to 23C53 (23C53): bind specifically

TNFα
Reduction of eNOS expression relative to normoxic controls (eNOS [5]): 65%
Expression of ARG1 (ARG1): increasing expression
eNOS mRNA expression (RT-PCR) (eNOS mRNA [6]): drastically decreased
ARG1 expression relative to control cultures (arginase 1 (ARG1)): significant increase
Decrease of eNOS mRNA level (eNOS mRNA [7]): ~80%
